Measurements taken from US4619925A, “3-Propenyl cephalosporin derivatives” (priority 1985, dated 1986).
Values after ≈ are worked out from the molar mass of the structure shown. Like-named read-outs stand apart in the source and are kept apart here.

Assays:
Assay type in all cases: cell-based
[1] = test system: S. aureus A9601; assay: MIC, agar dilution technique (Mueller-Hinton Agar); details: Staphylococcus aureus; S. aureus A9601; Gp-Ia, penicillin sensitive; read-out: Minimum Inhibitory Concentration
Source text: (§1) Each of these groups of organisms is constituted of five individual strains of microorganism. The Gp-Ia organisms are Gram-positive staphylococci which are sensitive to penicillin. The Gp-Ib organisms are Gram-positive staphylococci which are resistant to penicillin and produce penicillinase. The Gn-Ia organisms are Gram-negative bacteria which are sensitive to ampicillin and cephalothin. The Gn-Ib organisms are Gram-negative bacteria which are resistant to ampicillin and cephalothin.

[2] = test system: E. coli Juhl; assay: MIC, agar dilution technique (Mueller-Hinton Agar); details: Escherichia coli; E. coli Juhl; Gn-Ia, ampicillin and cephalothin sensitive; read-out: Minimum Inhibitory Concentration
Source text: as §1

[3] = test system: E coli RGN-823; assay: MIC, agar dilution technique (Mueller-Hinton Agar); details: Escherichia coli, RGN823, Gn-Ib, ampicillin and cephalothin resistant, read-out: Minimum Inhibitory Concentration
Source text: as §1

[4] = test system: P. mirabilis A9554; assay: MIC, agar dilution technique (Mueller-Hinton Agar); details: Proteus mirabilis; P. mirabilis A9554; Gn-Ia, ampicillin and cephalothin sensitive; read-out: Minimum Inhibitory Concentration
Source text: as §1

[5] = test system: S. aureus BX-1633-2; assay: MIC, agar dilution technique (Mueller-Hinton Agar); details: Staphylococcus aureus
Source text: as §1

[6] = test system: P. mirabilis A9900; assay: MIC, agar dilution technique (Mueller-Hinton Agar); details: Proteus mirabilis; P. mirabilis A9900; Gn-Ia, ampicillin and cephalothin sensitive; read-out: Minimum Inhibitory Concentration
Source text: as §1

[7] = test system: S. aureus A9534; assay: MIC, agar dilution technique (Mueller-Hinton Agar); details: Staphylococcus aureus, Gp-Ia, penicillin sensitive, read-out: Minimum Inhibitory Concentration
Source text: as §1

[8] = test system: S. aureus A9602; assay: MIC, agar dilution technique (Mueller-Hinton Agar); details: Staphylococcus aureus; S. aureus A9602; Gp-Ib, penicillin resistant; read-out: Minimum Inhibitory Concentration
Source text: as §1

[9] = test system: E. coli A20341-1; assay: MIC, agar dilution technique (Mueller-Hinton Agar); details: Escherichia coli, A203411; E. coli A20341-1; Gn-Ib, ampicillin and cephalothin resistant; read-out: Minimum Inhibitory Concentration
Source text: as §1

[10] = test system: S. aureus Terajima; assay: MIC, agar dilution technique (Mueller-Hinton Agar); details: Staphylococcus aureus, Gp-Ia, penicillin sensitive, read-out: Minimum Inhibitory Concentration
Source text: as §1

[11] = test system: S. aureus Russell; assay: MIC, agar dilution technique (Mueller-Hinton Agar); details: Staphylococcus aureus, read-out: Minimum Inhibitory Concentration
Source text: as §1

[12] = test system: S. aureus A15092; assay: MIC, agar dilution technique (Mueller-Hinton Agar); details: Staphylococcus aureus, Gp-Ib, penicillin resistant, read-out: Minimum Inhibitory Concentration
Source text: as §1

[13] = test system: K. pneumoniae A20345; assay: MIC, agar dilution technique (Mueller-Hinton Agar); details: Klebsiella pneumoniae, Gn-Ib, ampicillin and cephalothin resistant, read-out: Minimum Inhibitory Concentration
Source text: as §1

[14] = test system: S. aureus A9497; assay: MIC, agar dilution technique (Mueller-Hinton Agar); details: Staphylococcus aureus, Gp-Ia, penicillin sensitive, read-out: Minimum Inhibitory Concentration
Source text: as §1

[15] = test system: S. aureus No. 193; assay: MIC, agar dilution technique (Mueller-Hinton Agar); details: Staphylococcus aureus, Gp-Ib, penicillin resistant, read-out: Minimum Inhibitory Concentration
Source text: as §1

[16] = test system: E. coli A9660; assay: MIC, agar dilution technique (Mueller-Hinton Agar); details: Escherichia coli; E. coli A9660; Gn-Ia, ampicillin and cephalothin sensitive; read-out: Minimum Inhibitory Concentration
Source text: as §1

[17] = test system: K. pneumoniae D11; assay: MIC, agar dilution technique (Mueller-Hinton Agar); details: Klebsiella pneumoniae; K. pneumoniae D11; Gn-Ia, ampicillin and cephalothin sensitive; read-out: Minimum Inhibitory Concentration
Source text: as §1

[18] = test system: E. coli A15148; assay: MIC, agar dilution technique (Mueller-Hinton Agar); details: Escherichia coli; E. coli A15148; Gn-Ib, ampicillin and cephalothin resistant; read-out: Minimum Inhibitory Concentration
Source text: as §1

[19] = test system: S. aureus Smith; assay: MIC, agar dilution technique (Mueller-Hinton Agar); details: Staphylococcus aureus, Gp-Ia, penicillin sensitive, read-out: Minimum Inhibitory Concentration
Source text: as §1

[20] = test system: K. pneumoniae A20346; assay: MIC, agar dilution technique (Mueller-Hinton Agar); details: Klebsiella pneumoniae; K. pneumoniae A20346; Gn-Ib, ampicillin and cephalothin resistant; read-out: Minimum Inhibitory Concentration
Source text: as §1

[21] = test system: H. influenzae A22481; assay: In vitro activity against fastidious bacteria; details: Haemophilus influenzae, ampicillin-resistant (ABPC-R)
Source text: (§2) Table 5 contains comparative data for in vitro antibacterial activity against fastidious bacteria.

[22] = test system: H. influenzae A9729; assay: In vitro activity against fastidious bacteria; details: Haemophilus influenzae; H. influenzae A9729; ampicillin-sensitive (ABPC-S); read-out: MIC
Source text: as §2

[23] = test system: N. gonorrheae A20143; assay: In vitro activity against fastidious bacteria; details: N. gonorrheae A20143; read-out: MIC
Source text: as §2

[24] = test system: S. pneumoniae Type I; assay: In vitro activity against fastidious bacteria; details: Streptococcus pneumoniae; S. pneumoniae Type I; read-out: MIC
Source text: as §2

[25] = test system: H. influenzae A20177; assay: In vitro activity against fastidious bacteria; details: Haemophilus influenzae; H. influenzae A20177; ampicillin-sensitive (ABPC-S); read-out: MIC
Source text: as §2

[26] = test system: S. pneumoniae Type III; assay: In vitro activity against fastidious bacteria; details: Streptococcus pneumoniae; S. pneumoniae Type III; read-out: MIC
Source text: as §2

[27] = test system: H. influenzae A9833; assay: In vitro activity against fastidious bacteria; details: Haemophilus influenzae; H. influenzae A9833; ampicillin-sensitive (ABPC-S); read-out: MIC
Source text: as §2

[28] = test system: S. pneumoniae A15069; assay: In vitro activity against fastidious bacteria; details: Streptococcus pneumoniae; S. pneumoniae A15069; read-out: MIC
Source text: as §2

[29] = test system: N. meningitidis A21495; assay: In vitro activity against fastidious bacteria; details: Neisseria meningitidis; N. meningitidis A21495; read-out: MIC
Source text: as §2

[30] = test system: H. influenzae A22482; assay: In vitro activity against fastidious bacteria; details: Haemophilus influenzae
Source text: as §2

[31] = test system: S. pyogenes s-23; assay: In vitro activity against fastidious bacteria; details: Streptococcus pyogenes, S23; S. pyogenes s-23; read-out: MIC
Source text: as §2

[32] = test system: N. meningitidis A21497; assay: In vitro activity against fastidious bacteria; details: Neisseria meningitidis; N. meningitidis A21497; read-out: MIC
Source text: as §2

[33] = test system: S. pneumoniae A20759; assay: In vitro activity against fastidious bacteria; details: Streptococcus pneumoniae; S. pneumoniae A20759; read-out: MIC
Source text: as §2

| SMILES | MIC [1] [µg/mL] | MIC [2] [µg/mL] | MIC [3] [µg/mL] | MIC [4] [µg/mL] | MIC [6] [µg/mL] | MIC [7] [µg/mL] | MIC [8] [µg/mL] | MIC [9] [µg/mL] | MIC [10] [µg/mL] | MIC [12] [µg/mL] | MIC [13] [µg/mL] | MIC [14] [µg/mL] | MIC [15] [µg/mL] | MIC [16] [µg/mL] | MIC [17] [µg/mL] | MIC [18] [µg/mL] | MIC [19] [µg/mL] | MIC [20] [µg/mL] | MIC [21] [µg/mL] | MIC [22] [µg/mL] | further results |
| --- | --- | --- | --- | --- | --- | --- | --- | --- | --- | --- | --- | --- | --- | --- | --- | --- | --- | --- | --- | --- | --- |
| C/C=C\C1=C(C(=O)O)N2C(=O)C(NC(=O)[C@H](N)c3ccc(O)cc3)[C@H]2SC1 (stereo partly drawn) [BMY-28100, 7-[D-2-amino-2-(4-hydroxyphenyl)acetamido]-3-[(Z)-1-propen-1-yl]-3-cephem-4-carboxylic acid] | 0.8 (≈ 2.05 µM) | 1.6 (≈ 4.11 µM) | > 50 | 0.8 (≈ 2.05 µM) | 0.8 (≈ 2.05 µM) | 0.4 (≈ 1.03 µM) | 0.8 (≈ 2.05 µM) | 25 (≈ 64.2 µM) | 0.4 (≈ 1.03 µM) | 1.6 (≈ 4.11 µM) | 6.3 (≈ 16.2 µM) | 0.4 (≈ 1.03 µM) | 1.6 (≈ 4.11 µM) | 0.8 (≈ 2.05 µM) | 0.8 (≈ 2.05 µM) | 50 (≈ 128 µM) | 0.4 (≈ 1.03 µM) | 25 (≈ 64.2 µM) | 0.8 (≈ 2.05 µM) | 0.8 (≈ 2.05 µM) | MIC ([5]; BX16332, S. aureus BX-1633-2, Gp-Ib, penicillin resistant, read-out: Minimum Inhibitory Concentration): 0.8 µg/mL (≈ 2.05 µM); MIC ([11]; S. aureus Russell, Gp-Ib, penicillin resistant): 0.8 µg/mL (≈ 2.05 µM); MIC [23]: 0.8 µg/mL (≈ 2.05 µM); MIC [24]: 0.1 µg/mL (≈ 0.257 µM); MIC [25]: 0.8 µg/mL (≈ 2.05 µM); MIC [26]: 0.2 µg/mL (≈ 0.514 µM); MIC [27]: 0.8 µg/mL (≈ 2.05 µM); MIC [28]: 0.4 µg/mL (≈ 1.03 µM); MIC [29]: 0.4 µg/mL (≈ 1.03 µM); MIC ([30]; H. influenzae A22482, ampicillin-sensitive (ABPC-S), read-out: MIC): 0.8 µg/mL (≈ 2.05 µM); MIC [31]: 0.05 µg/mL (≈ 0.128 µM); MIC [32]: 0.4 µg/mL (≈ 1.03 µM); MIC [33]: 0.4 µg/mL (≈ 1.03 µM) |
| C/C=C\C1=C(C(=O)O)N2C(=O)C(NC(=O)[C@H](N)c3cccc(O)c3)[C@H]2SC1 (stereo partly drawn) [BMY-28272, 7-[(D)-2-amino-2-(3-hydroxyphenyl)acetamido]-3-[(Z)-1-propenyl]-3-cephem-4-carboxylic acid] | 0.8 (≈ 2.05 µM) | 1.6 (≈ 4.11 µM) | 50 (≈ 128 µM) | 0.8 (≈ 2.05 µM) | 0.8 (≈ 2.05 µM) | 0.4 (≈ 1.03 µM) | 0.8 (≈ 2.05 µM) | 12.5 (≈ 32.1 µM) | 0.4 (≈ 1.03 µM) | 1.6 (≈ 4.11 µM) | 6.3 (≈ 16.2 µM) | 0.4 (≈ 1.03 µM) | 1.6 (≈ 4.11 µM) | 0.8 (≈ 2.05 µM) | 0.8 (≈ 2.05 µM) | 25 (≈ 64.2 µM) | 0.4 (≈ 1.03 µM) | 50 (≈ 128 µM) | 0.8 (≈ 2.05 µM) | 0.4 (≈ 1.03 µM) | MIC ([5]; BX16332, read-out: Minimum Inhibitory Concentration): 1.6 µg/mL (≈ 4.11 µM); MIC [11]: 1.6 µg/mL (≈ 4.11 µM); MIC [23]: 0.8 µg/mL (≈ 2.05 µM); MIC [24]: 0.1 µg/mL (≈ 0.257 µM); MIC [25]: 0.8 µg/mL (≈ 2.05 µM); MIC [26]: 0.4 µg/mL (≈ 1.03 µM); MIC [27]: 0.4 µg/mL (≈ 1.03 µM); MIC [28]: 0.4 µg/mL (≈ 1.03 µM); MIC [29]: 0.4 µg/mL (≈ 1.03 µM); MIC ([30]; A22482): 0.4 µg/mL (≈ 1.03 µM); MIC [31]: 0.05 µg/mL (≈ 0.128 µM); MIC [32]: 0.4 µg/mL (≈ 1.03 µM); MIC [33]: 0.4 µg/mL (≈ 1.03 µM) |
